Columns and labels:
ECHCG [1] = test: Pre-emergence herbicidal action against ECHCG; format: in vivo, Echinochloa crus-galli; settings: scored visually after about 3 weeks vs untreated controls, 100% = plants have died, 0% = like control plants
In short: (§1)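 Scoring is visual, in percent relative to untreated pots, roughly 3 weeks after soil-surface application. Rates were 1280 or 320 g/ha, delivered as WP or EC preparations with 0.5% additive in 600 L/ha water onto freshly sown, covered sandy loam.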

SETVI [2] = test: Pre-emergence herbicidal action against SETVI; format: in vivo, Setaria viridis; settings: 1280 g/ha, scored visually after about 3 weeks vs untreated controls
In short: as §1

AMARE [3] = test: Pre-emergence herbicidal action against AMARE; format: in vivo, Amaranthus retroflexus; settings: scored visually after about 3 weeks vs untreated controls; for Pre-emergence action at 320 g/ha against AMARE in %: 100% = plants have died, 0% = like control plants; for Pre-emergence action against AMARE in %: 1280 g/ha
In short: as §1

POLCO [4] = test: Pre-emergence herbicidal action against POLCO; format: in vivo, Polygonum convolvulus; settings: 320 g/ha, scored visually after about 3 weeks vs untreated controls
In short: as §1

STEME [5] = test: Pre-emergence herbicidal action against STEME; format: in vivo, Stellaria media; settings: scored visually after about 3 weeks vs untreated controls
In short: as §1

VERPE [6] = test: Pre-emergence herbicidal action against VERPE; format: in vivo, Veronica persica; settings: 320 g/ha, scored visually after about 3 weeks vs untreated controls
In short: as §1

HORMU [7] = test: Pre-emergence herbicidal action against HORMU; format: in vivo, Hordeum murinum; settings: 320 g/ha, scored visually after about 3 weeks vs untreated controls
Text: Seeds of mono- and dicotyledonous weed plants are placed in plastic pots in sandy loam soil (doubly sown with one species each of mono- or dicotyledonous weed plants per pot) and covered with soil. The compounds of the invention, formulated in the form of wettable powders (WP) or as emulsion concentrates (EC), are then applied onto the surface of the covering soil as aqueous suspension or emulsion with addition of 0.5% additive at a water application rate equivalent to 600 litres per hectare. After the treatment, the pots are placed in a greenhouse and kept under good growth conditions for the trial plants. After about 3 weeks, the effect of the preparations is scored visually in comparison with untreated controls as percentages. For example, 100% activity=the plants have died, 0% activity=like control plants. [table] Tables 4.1-4.15 below show the effects of selected compounds of the general formula (I) according to Tables 1 to 3 on various harmful plants at an application rate corresponding to 1280 or 320 g/ha, which have been obtained by the aforementioned experimental method.

AMARE [8] = test: Post-emergence herbicidal action against AMARE; format: in vivo, Amaranthus retroflexus; settings: visual rating about 3 weeks after treatment
In short: (§2)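 Applied post-emergence at 1280 or 320 g/ha to one-leaf-stage weeds grown in sandy loam, using WP or EC formulations in water (600 litres per hectare, 0.5% additive). Efficacy is scored visually relative to untreated plants about 3 weeks later, 0% meaning no effect and 100% plant death.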

MATIN = test: Post-emergence herbicidal action against MATIN; format: in vivo, Matricaria inodora; settings: visual rating about 3 weeks after treatment
In short: as §2

POLCO [9] = test: Post-emergence herbicidal action against POLCO; format: in vivo, Polygonum convolvulus; settings: 320 g/ha, visual rating about 3 weeks after treatment
In short: as §2

STEME [10] = test: Post-emergence herbicidal action against STEME; format: in vivo, Stellaria media; settings: visual rating about 3 weeks after treatment
In short: as §2

VIOTR = test: Post-emergence herbicidal action against VIOTR; format: in vivo, Viola tricolor; settings: 320 g/ha, visual rating about 3 weeks after treatment
In short: as §2

HORMU [11] = test: Post-emergence herbicidal action against HORMU; format: in vivo, Hordeum murinum; settings: 320 g/ha, visual rating about 3 weeks after treatment
Procedure: (§3) [table] Seeds of mono- and dicotyledonous weed plants are placed in plastic pots in sandy loam soil (twin sowing with one species each of mono- or dicotyledonous weed plants per pot), covered with soil and cultivated in a greenhouse under controlled growth conditions. 2 to 3 weeks after sowing, the test plants are treated at the one-leaf stage. The compounds of the invention, formulated in the form of wettable powders (WP) or as emulsion concentrates (EC), are applied to the green parts of the plants as aqueous suspension or emulsion with addition of 0.5% additive at a water application rate equivalent to 600 litres per hectare. After the test plants have been kept in the greenhouse under optimum growth conditions for about 3 weeks, the activity of the preparations is rated visually in comparison to untreated controls. For example, 100% activity=the plants have died, 0% activity=like control plants. Tables 5.1-5.16 below show the effects of selected compounds of the general formula (I) according to Tables 1 to 3 on various harmful plants at an application rate corresponding to 1280 or 320 g/ha, which have been obtained by the aforementioned experimental method.

harmful plants = test: Pre-emergence herbicidal action, summary of Tables 4.1-4.15; format: in vivo; settings: result in words
In short: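 Percent herbicidal action (100% = plants dead, 0% = like controls) was assessed visually about 3 weeks after treatment. Application rates of 1280 or 320 g/ha were applied to the covering soil of freshly sown sandy-loam pots, in 600 l/ha water with 0.5% additive, before emergence.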

ECHCG [12] = test: Post-emergence herbicidal action against ECHCG; format: in vivo, Echinochloa crus-galli; settings: 1280 g/ha, post-emergence at one-leaf stage, rated visually after about 3 weeks vs untreated controls
In short: as §2

LOLRI = test: Post-emergence herbicidal action against LOLRI; format: in vivo, Lolium rigidum; settings: 1280 g/ha, post-emergence at one-leaf stage, rated visually after about 3 weeks vs untreated controls
Procedure: as §3

SETVI [13] = test: Post-emergence herbicidal action against SETVI; format: in vivo, Setaria viridis; settings: 1280 g/ha, post-emergence at one-leaf stage, rated visually after about 3 weeks vs untreated controls
In short: as §2

VERPE [14] = test: Post-emergence herbicidal action against VERPE; format: in vivo, Veronica persica; settings: 320 g/ha, visual rating about 3 weeks after treatment
In short: as §2

PHBPU = test: Post-emergence herbicidal action against PHBPU; format: in vivo, Pharbitis purpurea; settings: 320 g/ha, visual rating about 3 weeks after treatment
In short: as §2

Row | Compound | Pre-emergence action at 1280 g/ha against ECHCG in % (ECHCG [1]) | Pre-emergence action against SETVI in % (SETVI [2]) | Pre-emergence action at 320 g/ha against AMARE in % (AMARE [3]) | Pre-emergence action against AMARE in % (AMARE [3]) | Pre-emergence action against POLCO in % (POLCO [4]) | Pre-emergence action against STEME in % (STEME [5]; 320 g/ha) | Pre-emergence action against STEME in % (STEME [5]; 1280 g/ha) | Pre-emergence action against VERPE in % (VERPE [6]) | Pre-emergence action against HORMU in % (HORMU [7]) | Post-emergence action against AMARE in % (AMARE [8]; 320 g/ha) | Post-emergence action against MATIN in % (MATIN; 320 g/ha) | Post-emergence action against MATIN in % (MATIN; 1280 g/ha) | Post-emergence action against POLCO in % (POLCO [9]) | Post-emergence action against STEME in % (STEME [10]; 320 g/ha) | Post-emergence action against STEME in % (STEME [10]; 1280 g/ha) | Post-emergence action against VIOTR in % (VIOTR) | Post-emergence action against HORMU in % (HORMU [11]) | herbicidal efficacy against harmful plants in the case of pre-emergence treatment (harmful plants) | Post-emergence action against ECHCG in % (ECHCG [12]) | Post-emergence action against AMARE in % (AMARE [8]; 1280 g/ha) | other results
1 | CC(Oc1nn(-c2ccccc2)c(-c2ccc(F)cc2)c1Cl)C(=O)O (stereo not drawn) [I-139] | 100% | 100% | 100% | 100% | 90% | 100% | 100% | 100% | 90% | 90% | 80% | 90% | 90% | 80% | 90% | 80% | 80% | good herbicidal efficacy |  |  | 
2 | COC(=O)C(C)Oc1nn(-c2ccccc2F)c(-c2ccc(F)c(F)c2)c1C#N (stereo not drawn) [I-171] | 90% | 100% |  | 100% |  |  | 100% |  |  |  |  | 90% |  |  | 100% |  |  |  | 100% | 90% | Post-emergence action against LOLRI in % (LOLRI): 100%; Post-emergence action against SETVI in % (SETVI [13]): 100%
3 | COC(=O)[C@@H](C)Oc1nn(-c2ccccc2)c(-c2ccc(F)cc2)c1C#N [I-130] | 100% | 100% | 100% | 100% | 90% | 90% | 100% | 100% | 100% | 90% | 90% | 90% | 90% | 90% | 100% | 90% | 80% |  | 100% | 90% | Post-emergence action against LOLRI in % (LOLRI): 90%; Post-emergence action against VERPE in % (VERPE [14]): 90%
4 | COC(=O)[C@@H](C)Oc1nn(-c2cccc(F)c2)c(-c2cccc(F)c2)c1C#N [I-125] | 100% | 100% | 100% | 100% | 100% | 90% | 100% | 90% | 90% | 90% | 80% | 90% | 80% |  | 90% | 90% | 90% | good herbicidal efficacy | 90% | 90% | Post-emergence action against SETVI in % (SETVI [13]): 90%; Post-emergence action against PHBPU in % (PHBPU): 80%; Post-emergence action against VERPE in % (VERPE [14]): 80%
5 | C=CCNC(=O)COc1nn(-c2c(F)cccc2F)c(-c2ccc(F)c(F)c2)c1[N+](=O)[O-] [III-069] | 100% | 100% | 100% | 90% | 90% | 100% | 90% | 100% | 90% | 90% | 80% |  | 80% | 90% |  |  | 80% | good herbicidal efficacy |  |  | Post-emergence action against VERPE in % (VERPE [14]): 90%
